Measured values taken from article PMC5464342 (Pharmacology Research & Perspectives, 2017).
Where two headings read alike, the source gives them in different places.

How the values were obtained:
[1] = EXE metabolite identification in human liver microsomes by UPLC/MS/MS; format: in vitro ADME; conditions: 50 μg HLM, 400 μmol/L EXE, NADPH regeneration system, 37°C, 4 h; for identified as phase I EXE metabolite in incubations of EXE with pooled human liver microsomes: comparison to reference compounds
aromatase = system: aromatase; parameters: method as in Buzzetti et al. 1993; conditions: ref Buzzetti et al. 1993; cited from earlier work
[2] = biological target: T1, wild type aromatase (CYP19A1*1) (Homo sapiens, UniProt P11511); assay: Anti-aromatase activity assay, estrone formation by UPLC/MS/MS, microsomes of HEK293 overexpressing wild type aromatase; format: biochemical
T1 sequence (P11511 1-503): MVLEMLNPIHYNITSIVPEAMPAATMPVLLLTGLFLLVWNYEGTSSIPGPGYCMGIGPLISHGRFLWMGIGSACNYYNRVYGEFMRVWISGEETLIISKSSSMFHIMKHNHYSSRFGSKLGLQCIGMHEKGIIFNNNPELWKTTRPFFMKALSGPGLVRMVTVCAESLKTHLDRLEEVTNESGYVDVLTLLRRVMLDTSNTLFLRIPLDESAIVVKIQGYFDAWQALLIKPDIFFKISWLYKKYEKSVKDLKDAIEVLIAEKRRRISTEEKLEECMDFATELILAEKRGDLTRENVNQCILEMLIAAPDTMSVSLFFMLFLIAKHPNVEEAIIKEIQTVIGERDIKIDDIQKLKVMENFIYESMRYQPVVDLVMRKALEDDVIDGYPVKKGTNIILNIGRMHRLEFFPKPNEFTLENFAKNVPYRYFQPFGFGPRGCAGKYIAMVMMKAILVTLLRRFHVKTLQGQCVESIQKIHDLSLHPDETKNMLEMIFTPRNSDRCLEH

In the case of `C=C1CC2C(CC[C@@]3(C)C2CC[C@@H]3O)[C@@]2(C)C=CC(=O)C=C12` (stereo partly drawn) [17β-dihydroexemestane], the “abundance of the EXE metabolite formed in human liver microsomes” value [1] is given as “predominant EXE metabolite”, the “identified as phase I EXE metabolite in incubations of EXE with pooled human liver microsomes” value (shortened to “identified as phase I EXE metabolite”) [1] is given as “identified” and the “fold less potent than EXE (earlier study)” value (aromatase) is given as “approximately 2.6 fold”.
In the case of `C[C@]12C=CC(=O)C=C1C(O)(CO)CC1C2CC[C@]2(C)C(=O)CCC12` (stereo partly drawn) [6α/β-hydroxy-6α/β-hydroxymethylandrosta-1,4-diene-3,17-dione], the “identified as phase I EXE metabolite” value [1] is reported as “identified” and the IC50 [2] is reported as greater than 100 µM.
In the case of `C[C@]12C=CC(=O)C=C1[C@@]1(CO1)CC1C2CC[C@]2(C)C(=O)CCC12` (stereo partly drawn) [6α-spirooxiranandrosta-1,4-diene-3,17-dione], the IC50 [2] is reported as 1.2 ± 0.19 µM and the “fold more potency than its 6β stereoisomer (wild type aromatase)” value ([2]; ratio of IC50 values versus 6β-spirooxiranandrosta-1,4-diene-3,17-dione) is reported as roughly 5 fold.
In the case of `C[C@]12C=CC(=O)C=C1[C@]1(CO1)CC1C2CC[C@]2(C)C(=O)CCC12` (stereo partly drawn) [6β-spirooxiranandrosta-1,4-diene-3,17-dione], the IC50 [2] is reported as 5.7 ± 1.6 µM.
With `C[C@]12C=CC(=O)C=C1C(CO)=CC1C2CC[C@]2(C)C(=O)CCC12` (some centres unmarked) [6-hydroxymethylandrosta-1,4,6-triene-3,17-dione] the “identified as phase I EXE metabolite” value [1] was “identified”, the IC50 [2] was 61 ± 20 µM and the “fold less potent than EXE (wild type aromatase)” value ([2]; ratio of IC50 values versus EXE) was 67 fold.
Work on `C[C@]12CC[C@H]3[C@@H](C=C(CO)C4=CC(=O)C=C[C@@]43C)[C@@H]1CC[C@@H]2O` [17β-hydroxy-6-hydroxymethylandrosta-1,4,6-triene-3-one] yielded an IC50 ([2]; 15 μg HEK293 microsomes, 5 μmol/L androstenedione, NADPH regeneration system, 37°C, 2 h, read-out: IC50 for wild-type aromatase) greater than 100 µM.
With `C[C@]12C=CC(=O)C=C1C(O)(CO)CC1C2CC[C@@]2(C)C1CC[C@@H]2O` (stereo partly drawn) [6α/β,17β-dihydroxy-6α/β-hydroxymethylandrosta-1,4-diene-3-one] the “identified as phase I EXE metabolite” value [1] was “identified” and the IC50 [2] was greater than 100 µM.
